Reference: ChEMBL document CHEMBL1201862, “PubChem BioAssay data set” (2004)
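Growth conditions: 96-well plates. Treatment: test compound, 48 hours, 5 concentrations. Analysis: linear interpolation between bracketing concentrations; unreached endpoints set to highest concentration. GI50: concentration for 50% inhibition of growth.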 The source made the active and inactive calls. Cut-off read from the data, not from the text of the source: active = GI50 up to about 1.1 µM and inactive = higher.

How the values were obtained:
Test in all cases: DTP human tumour cell line panel, 48 h
[1] = test system: A549
[2] = test system: CCRF-CEM
[3] = test system: HCT-116
[4] = test system: HCT-15
[5] = test system: HOP-92
[6] = test system: Hs-578T
[7] = test system: NCI-H226
[8] = test system: NCI/ADR-RES
[9] = test system: OVCAR-5
[10] = test system: OVCAR-8
[11] = test system: PC-3
[12] = test system: SF-268
[13] = test system: SK-MEL-28
[14] = test system: SK-MEL-5
[15] = test system: SNB-75
[16] = test system: SR
[17] = test system: SW-620
[18] = test system: UO-31
[19] = test system: DU-145
[20] = test system: MDA-MB-435

Measured: GI50

CC(C)N(/C(F)=N\C(=O)Nc1ccccc1C(F)(F)F)C(C)C
34.3 µM: [4]
inactive: [1] 52.1 µM | [2] 37.9 µM | [3] 36.6 µM | [5] 22.5 µM | [6] 60.3 µM | [7] > 100 µM | [8] 41.5 µM | [9] > 100 µM | [10] 58.1 µM | [11] 33.3 µM | [12] 89.3 µM | [13] 81.5 µM | [14] 38.4 µM | [15] > 100 µM | [16] 28.5 µM | [17] 44.7 µM | [18] 45 µM

CN1C(=O)C2CCC(=O)N2c2cccnc21 (configuration not stated)
inactive: [1] > 100 µM | [2] > 100 µM | [19] > 100 µM | [3] > 100 µM | [6] > 100 µM | [20] > 100 µM | [7] > 100 µM | [8] > 100 µM | [10] > 100 µM | [12] > 100 µM | [13] > 100 µM | [14] > 100 µM | [16] > 100 µM | [17] > 100 µM | [18] > 100 µM
> 100 µM: [4]

COc1ccc(NC(=O)C2=C(SC)C(C#N)C(=O)N=C2N)cc1 (configuration not stated)
> 100 µM: [4]
inactive: [1] > 100 µM | [2] 25.7 µM | [19] > 100 µM | [3] > 100 µM | [5] 14 µM | [6] 89.1 µM | [20] > 100 µM | [7] > 100 µM | [9] > 100 µM | [11] > 100 µM | [12] > 100 µM | [13] > 100 µM | [14] > 100 µM | [16] > 100 µM | [17] 67.1 µM | [18] 72.1 µM

Cc1ccc(S(=O)(=O)Nn2c(S)c(C#N)c(-c3ccc(Cl)cc3)c(C#N)c2=O)cc1
25.9 µM: [4]
inactive: [1] 43.7 µM | [2] 7.93 µM | [19] 52.2 µM | [3] 28.4 µM | [5] 59 µM | [20] 27.1 µM | [7] 16.4 µM | [8] 27.5 µM | [9] 50.1 µM | [10] 22 µM | [11] 24.4 µM | [13] 31.2 µM | [14] 16.4 µM | [15] 33.8 µM | [16] 29.7 µM | [17] 22.4 µM | [18] 19.1 µM

COc1ccc(OC)c(CC(=O)c2ccc(O)c(C(=O)NCCc3ccc(F)cc3)c2)c1
2.3 µM: [4]
inactive: [1] 4.49 µM | [19] 1.73 µM | [5] 10.8 µM | [6] 3.1 µM | [8] 2.21 µM | [9] 7.36 µM | [10] 4.23 µM | [12] 4.13 µM | [13] 6.41 µM | [14] 1.73 µM | [15] 2.55 µM | [17] 4.18 µM | [18] 4.76 µM
active: [20] 0.615 µM | [16] 0.502 µM

O=C(Nc1ccc(N2C(=O)CSC2c2cccs2)cc1)c1ccc(N2C(=O)CSC2c2cccs2)cc1 (configuration not stated)
> 100 µM: [4]
inactive: [1] 37.2 µM | [2] 44.2 µM | [19] > 100 µM | [3] > 100 µM | [5] > 100 µM | [6] > 100 µM | [20] 83.4 µM | [8] > 100 µM | [9] > 100 µM | [10] > 100 µM | [11] > 100 µM | [12] > 100 µM | [13] > 100 µM | [14] > 100 µM | [15] > 100 µM | [17] > 100 µM | [18] > 100 µM

COc1ccccc1NC(=O)C1=C(C)NC(C)=C(C(=O)Nc2ccccc2OC)C1c1ccco1
4.76 µM: [4]
inactive: [1] 5.18 µM | [2] 5.06 µM | [19] 21.4 µM | [3] 4.36 µM | [5] 3.98 µM | [6] 3.1 µM | [20] 3.48 µM | [7] 7.94 µM | [9] 39.8 µM | [10] 17.8 µM | [11] 3.47 µM | [12] 10.3 µM | [13] 19.7 µM | [14] 3.02 µM | [15] 3.37 µM | [16] 1.34 µM | [17] 4.49 µM | [18] 9.27 µM

COc1ccc2c(c1)N=C1CSC(c3ccccc3Cl)N1C2 (configuration not stated)
active: [16] 0.929 µM | [18] 0.351 µM
9.68 µM: [4]
inactive: [1] 10.4 µM | [3] 3.92 µM | [5] 18.3 µM | [6] 45.2 µM | [20] 11.5 µM | [7] 24 µM | [8] 21.6 µM | [9] 8.97 µM | [10] 16.1 µM | [11] 11.5 µM | [12] 16.4 µM | [13] 17.6 µM | [14] 17.1 µM | [15] 9.91 µM | [17] 14.8 µM

N=C(N)N/N=C/c1c(-c2ccc(Cl)c(Cl)c2Cl)nc2sccn12
1.63 µM: [4]
inactive: [1] 1.53 µM | [19] 1.7 µM | [3] 1.55 µM | [5] 1.44 µM | [6] 1.91 µM | [20] 1.85 µM | [7] 1.68 µM | [9] 1.49 µM | [10] 1.71 µM | [11] 2.72 µM | [12] 1.76 µM | [13] 1.73 µM | [14] 1.74 µM | [15] 1.49 µM | [17] 1.69 µM | [18] 1.46 µM

COc1cc2c(cc1OC)C(OC)N(C)c1c-2ccc2cc3c(cc12)OCO3 (configuration not stated)
inactive: [19] 2.26 µM | [3] 1.66 µM | [5] 2.19 µM | [20] 69 µM | [8] 26.8 µM | [9] 1.42 µM | [10] 1.72 µM | [11] 1.33 µM | [13] 4.28 µM | [14] 1.8 µM | [18] 18.1 µM
40.7 µM: [4]
active: [1] 0.201 µM | [2] 0.653 µM | [7] 1.11 µM | [12] 0.094 µM | [15] 0.708 µM | [16] 0.506 µM | [17] 0.571 µM

OCc1ccc2c(c1)CC1(Cc3ccccc3C1)C2
inactive: [1] 20.6 µM | [2] 4.39 µM | [19] 33.8 µM | [3] 14.3 µM | [5] 17.1 µM | [6] 15.8 µM | [7] 28.1 µM | [8] 16.8 µM | [10] 21.2 µM | [11] 10.8 µM | [12] 18.1 µM | [13] 19.3 µM | [14] 11.5 µM | [15] 13.5 µM | [16] 22.3 µM | [17] 18.4 µM | [18] 11.8 µM
25.8 µM: [4]

O=C(CC(C(=O)c1ccsc1)c1cccs1)c1ccccc1 (configuration not stated)
inactive: [1] 15.6 µM | [2] 80.4 µM | [19] 54.6 µM | [3] 71.4 µM | [5] > 100 µM | [6] > 100 µM | [20] 57.3 µM | [7] > 100 µM | [9] > 100 µM | [10] 89.1 µM | [12] > 100 µM | [13] > 100 µM | [14] 70.5 µM | [15] 23.7 µM | [16] 76.9 µM | [17] > 100 µM | [18] 19.2 µM
56.4 µM: [4]
